Patent US20050064014A1, “Use of cystathionine” (priority 2001, published 2005)
≈ marks a conversion by molar mass, not a printed value. Where two headings read alike, the source gives them in different places.

Key:
glutathione status = assay: Physiological effectiveness: diet supplementation in infected rats (sepsis), glutathione concentration; format: in vivo; conditions: standard protein diet supplemented with cystathionine, compared with cysteine positive control group
From the text: Groups of sick rats receiving differentiated diets are compared with regard to the glutathione concentration in various organs but especially in the liver. The liver is in fact the major organ for regulating glutathione synthesis in terms of the whole body. The compared groups received a standard protein diet supplemented either with an amino acid considered to be neutral with respect to glutathione (alanine) (control group), or with cysteine (positive control group), or with cystathionine (test group). A group of animals which are not sick is also realized (normal group).

[1] = format: physicochemical; conditions: for L-cystathionine (3 mM) Evaluated loss / L-cysteine (3 mM) Evaluated loss / L-cysteine (3 mM) Free cysteine / L-cysteine (3 mM) Oxidized cysteine: 121° C. for 15 minutes in an autoclave
Method: (§1) The stability of the cystathionine compared to that of cysteine was tested with deionized water and in various liquid enteral formulae (SONDALIS and REABILAN). REABILAN and SONDALIS (registered trademarks) are different enteral compositions comprising 35% of energy in the form of lipids, 50-52.5% in the form of carbohydrates, in particular of maltodextrins and starches, 12.5-15% in the form of peptides or proteins, and also comprising vitamins, mineral salts and other compounds such as taurine or L-camitine.
Stability Under Harsh Sterilization Conditions (121° C.-15 min) at 3 mM Concentration
Unlike cysteine, the cystathionine is found to be very stable.
In the enteral formulae, and after heat treatment, the amount of available cysteine decreases very substantially, and the relative loss of cysteine increases when the amount added decreases.

[2] = Stability under THA sterilization conditions (140° C.-15″), 43 mM in SONDALIS; format: physicochemical; conditions: THA sterilization 140° C.-15″
Method: Stability Under THA Sterilization Conditions (140° C.-15''), at High Concentration (43 mM) in […] […] The THA conditions therefore conventionally induce much less degradation than those described above, but slightly more than industrial UHT conditions. The high concentration (43 mM) was chosen because it falls within the average of that which may be recommended in enteral nutrition products. Under these conditions, the losses of cysteine are lower than for the harsh sterilization conditions (121° C.-15') but remain much too high (27%) for use in a nutrition product.

[3] = Maximum solubility in water; format: physicochemical; conditions: water at 25° C.; read-out: maximum level of solubility in water
Method: (§2) The cystathionine was added at its maximum level of solubility in water at 25° C., i.e. 0.6 mg/mL of water. The mixture was treated at 121° C. for 15 minutes in an autoclave and was analyzed.

[4] = Stability in water, autoclave 121° C. for 15 minutes; format: physicochemical; conditions: after 121° C. for 15 minutes
Method: as §1, §2
In water, cystathionine is very stable, even after treatment at 121° C. for 15 minutes, since the degree of recovery is 100%, and the cysteine is slightly oxidized to cystine (6%).

[5] = tested on: hepatic glutathione status; conditions: rats with sepsis, diet supplemented with cysteine; cited from earlier work

SMILES | glutathione concentration (glutathione status) | stability in the enteral formulae before heat treatment [1] | L-cystathionine (3 mM) Evaluated loss ([1]; REABILAN) [%] | L-cystathionine (3 mM) Evaluated loss ([1]; SONDALIS) [%] | L-cystathionine (43 mM) Evaluated loss [2] [%] | L-cystathionine (43 mM) Non-degraded form [2] [%] | L-cystathionine (43 mM) Evaluated loss ([2]; listed as cystathionine) | solubility [3] [µg/mL] | L-cysteine (3 mM) Evaluated loss ([1]; REABILAN) [%] | L-cysteine (3 mM) Free cysteine ([1]; REABILAN) [%] | L-cysteine (3 mM) Oxidized cysteine ([1]; REABILAN) [%] | L-cysteine (3 mM) Evaluated loss ([1]; SONDALIS) [%] | L-cysteine (3 mM) Free cysteine ([1]; SONDALIS) [%] | L-cysteine (3 mM) Oxidized cysteine ([1]; SONDALIS) [%] | oxidized to cystine [4] [%] | L-cysteine (43 mM) Evaluated loss [2] [%] | L-cysteine (43 mM) Free cysteine [2] [%] | L-cysteine (43 mM) Oxidized cysteine [2] [%] | L-cysteine (43 mM) Evaluated loss ([2]; listed as cysteine) [%] | hepatic glutathione status [5]
N[C@@H](CCSC[C@H](N)C(=O)O)C(=O)O [L-cystathionine, cystathionine] | level equivalent to that of the positive control group | very stable | 0 | 17 | 4 | 96 | at the limit of reproducibility of the assaying method | 600 (≈ 2700 µM) | – | – | – | – | – | – | – | – | – | – | – | –
N[C@@H](CS)C(=O)O [L-cysteine, cysteine] | – | relatively unstable | – | – | – | – | – | – | 83 | 12 | 5 | 86 | 11 | 3 | 6 | 27 | 66 | 7 | 27 | re-establish hepatic glutathione status at the level of a normal animal
